Experimental data as given in ChEMBL document CHEMBL1201862, “PubChem BioAssay data set” (2004).
Activity calls are given as the source filed them.

What was measured:
[1] = molecular target: Major prion protein (Homo sapiens, UniProt P04156); type: functional, cell-based
[2] = cells
[3] = cells; conditions: A549
[4] = cells; type: functional, cell-based
[5] = NIH3T3 cell viability loss – ATP luminescence, mouse fibroblasts, counter-screen, dose response (AID 2010); type: functional, cell-based;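 also: cells exposed to compound for about 90 hours before reading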
[6] = cells; conditions: HEK293
[7] = molecular target: Transthyretin (Homo sapiens, UniProt P02766); experiment: Luminescence-based cell-based high throughput dose response assay to identify activators of Transthyretin (TTR) transcription.; type: functional
[8] = Trypanosoma cruzi growth suppression in host cells – NIH3T3 host cells, beta-gal luminescence, confirmation (AID 2044); type: functional, cell-based;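 also: intracellular parasites grown in NIH/3T3 mouse fibroblasts as host cells; luminescent beta-galactosidase reporter signal from transgenic T. cruzi replicating inside host cells; inhibitors lower the luminescence signal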
[9] = molecular target: T1, DNA repair protein RAD52 homolog (Homo sapiens, UniProt P43351); type: functional, biochemical
T1 sequence (P43351 whole entry): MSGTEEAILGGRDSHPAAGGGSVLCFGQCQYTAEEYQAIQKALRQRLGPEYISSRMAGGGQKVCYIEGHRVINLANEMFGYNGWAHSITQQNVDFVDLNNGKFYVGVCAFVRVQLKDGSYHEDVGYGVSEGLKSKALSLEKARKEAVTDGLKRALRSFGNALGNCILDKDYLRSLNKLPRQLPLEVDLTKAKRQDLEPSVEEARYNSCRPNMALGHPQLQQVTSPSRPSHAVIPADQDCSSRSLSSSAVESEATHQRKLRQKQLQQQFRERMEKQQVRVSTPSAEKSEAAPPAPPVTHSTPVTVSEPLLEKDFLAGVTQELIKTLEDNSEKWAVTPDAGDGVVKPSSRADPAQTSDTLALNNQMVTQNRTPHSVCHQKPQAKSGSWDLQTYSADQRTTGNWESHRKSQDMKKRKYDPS

[10] = viability loss in HepG2 liver cells – cell-based, ATP luminescence, cherry-pick, set 6, cytotoxicity control, dose response (AID 1053125); type: functional
[11] = cells; remark: listed apart in the source
[12] = molecular target: T2, Microphthalmia-associated transcription factor (Homo sapiens, UniProt O75030); experiment: reducers of TRPM1 reporter luminescence, concentration series – cell-based, SK-MEL-5, cherry-picked, set 3, MITF inhibitor project, dose response (AID 493073); type: functional;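 also: SK-MEL-5 melanoma cells with luciferase driven by the MITF target TRPM1 promoter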
T2 sequence (O75030 whole entry): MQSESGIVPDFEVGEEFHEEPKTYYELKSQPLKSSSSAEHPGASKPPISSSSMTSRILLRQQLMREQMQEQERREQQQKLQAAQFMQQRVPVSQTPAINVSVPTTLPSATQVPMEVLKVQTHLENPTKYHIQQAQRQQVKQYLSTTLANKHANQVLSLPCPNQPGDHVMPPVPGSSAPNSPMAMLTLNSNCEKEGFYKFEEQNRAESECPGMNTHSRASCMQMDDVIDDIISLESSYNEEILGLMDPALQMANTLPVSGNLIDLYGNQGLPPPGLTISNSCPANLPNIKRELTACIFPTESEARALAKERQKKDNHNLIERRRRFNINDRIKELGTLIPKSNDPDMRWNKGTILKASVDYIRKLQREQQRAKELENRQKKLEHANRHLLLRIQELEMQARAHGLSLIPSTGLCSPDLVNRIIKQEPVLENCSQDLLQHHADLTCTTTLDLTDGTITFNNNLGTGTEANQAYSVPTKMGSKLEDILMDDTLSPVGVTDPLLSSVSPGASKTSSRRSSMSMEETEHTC

[13] = cells; type: functional, cell-based; remark: listed apart in the source
[14] = system: A-375; experiment: MITF: Counter assay: A375 proliferation Measured in Cell-Based System Using Plate Reader - 2084-03_Inhibitor_Dose_DryPowder_Activity. [Related pubchem assays (depositor defined):AID488944]; type: functional; conditions: Homo sapiens
[15] = molecular target: T3, Corticotropin-releasing factor receptor 2/Corticotropin-releasing factor-binding protein (Homo sapiens, UniProt P24387+Q13324); experiment: Dose Response confirmation of uHTS hits for small molecule antagonists of the CRF-binding protein and CRF-R2 receptor complex.; type: functional; conditions: read-out: IC50_Mean
T3 sequence (Q13324 whole entry): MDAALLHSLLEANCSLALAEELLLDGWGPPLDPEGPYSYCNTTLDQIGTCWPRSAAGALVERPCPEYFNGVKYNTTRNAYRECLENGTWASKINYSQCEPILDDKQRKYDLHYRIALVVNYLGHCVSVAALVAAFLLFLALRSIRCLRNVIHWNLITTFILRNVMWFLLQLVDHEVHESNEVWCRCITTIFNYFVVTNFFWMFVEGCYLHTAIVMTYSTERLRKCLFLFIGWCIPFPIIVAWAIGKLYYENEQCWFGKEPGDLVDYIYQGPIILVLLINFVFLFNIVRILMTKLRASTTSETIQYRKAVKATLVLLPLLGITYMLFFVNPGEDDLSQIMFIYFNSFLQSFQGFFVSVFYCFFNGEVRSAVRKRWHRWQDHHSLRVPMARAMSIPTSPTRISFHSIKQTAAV
T3 sequence (P24387 whole entry): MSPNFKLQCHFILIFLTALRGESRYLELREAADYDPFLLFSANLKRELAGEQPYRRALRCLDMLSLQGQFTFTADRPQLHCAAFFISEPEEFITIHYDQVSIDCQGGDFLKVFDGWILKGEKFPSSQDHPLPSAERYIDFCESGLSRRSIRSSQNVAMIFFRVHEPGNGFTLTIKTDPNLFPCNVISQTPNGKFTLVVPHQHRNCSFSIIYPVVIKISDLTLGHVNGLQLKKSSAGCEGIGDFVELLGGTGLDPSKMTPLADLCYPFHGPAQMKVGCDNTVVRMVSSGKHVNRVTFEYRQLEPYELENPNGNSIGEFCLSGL

[16] = molecular target: Kallikrein-7 (Homo sapiens, UniProt P49862); experiment: Fluorescence Intensity-based biochemical primary high throughput dose response assay to identify activators of kallikrein-7 (K7) zymogen.
[17] = molecular target: T3, Corticotropin-releasing factor receptor 2/Corticotropin-releasing factor-binding protein; experiment: activators of CRF receptor 2 with binding protein – uHTS hits, confirmation (AID 602473); type: functional; conditions: read-out: EC50_Mean
[18] = molecular target: Tyrosyl-DNA phosphodiesterase 2 (Homo sapiens, UniProt O95551); experiment: potency against TDP2 phosphodiesterase activity – biochemical, epi absorbance, IC50, dose response (AID 743297)
[19] = off-target signal loss in HeLa-CEM21 co-culture – HeLa F-luc CTL cells, cherry-picked, counter-screen for HIV-1 Env fusion inhibitor project, dose response (AID 652040); type: functional, cell-based;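 also: potency for signal decrease marking cytotoxic or nonspecific inhibition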
[20] = fluconazole-exposed Candida albicans growth modulators – fluorescence, retest, confirmation (AID 2467); type: functional, cell-based
[21] = system: INS1; experiment: INS-1E survival protection against cytokine death – cell-based, luminescence, retest, dose response (AID 449756); type: functional; conditions: Rattus norvegicus;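 also: cell death triggered by IL-1 beta plus TNF-alpha plus IFN-gamma mixture; protective hits raise ATP signal compared with cytokine alone wells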
[22] = molecular target: COUP transcription factor 2 (Homo sapiens, UniProt P24468); experiment: Luminescence-based cell-based high throughput dose response assay to identify inhibitors of COUP-TFII (NR2F2).; type: functional;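 also: HEK293 cells transiently cotransfected with COUP-TFII expression vector and reporter; luciferase reporter luminescence driven by COUP-TFII from the pX2-168 reporter plasmid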
[23] = HIV-1 AD8 envelope cell-cell fusion blockers – cherry-pick, dose response (AID 652062); type: functional, cell-based;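 also: luciferase signal from cell-cell fusion driven by HIV-1 clade B AD8 Env; potency is for inhibitors of fusion seen as a drop in luminescence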
[24] = NIH-3T3 fibroblast cytotoxicity, dose response, cytotoxicity control, cell-based, fluorescence, Alamar Blue, secondary assay (AID 2327); type: functional;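 also: NIH-3T3 mouse fibroblasts cultured with fluconazole at 8 µg/mL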
[25] = molecular target: 1-phosphatidylinositol 4,5-bisphosphate phosphodiesterase gamma-1 (Homo sapiens, UniProt P19174); experiment: Counterscreen for inhibitors of phospholipase C isozymes (PLC-B3): Fluorescence-based biochemical high throughput dose response assay to identify inhibitors of phospholipase C isozymes (PLC-gamma1).
[26] = molecular target: 1-phosphatidylinositol 4,5-bisphosphate phosphodiesterase beta-3 (Homo sapiens, UniProt Q01970); experiment: Fluorescence-based biochemical high throughput dose response assay to identify inhibitors of phospholipase C isozymes (PLC-B3).
[27] = molecular target: Caspase-7 (Homo sapiens, UniProt P55210); experiment: caspase-7 enzyme inhibition, selectivity check – biochemical, DEVD-R110 fluorescence, cherry-pick, selectivity assay for caspase-6 inhibitor project, dose response (AID 743295); type: functional
[28] = molecular target: Caspase-6 (Homo sapiens, UniProt P55212); experiment: inhibition of CASP6 peptide cleavage – biochemical, VEID-R110 fluorescence, cherry-pick, dose response (AID 720632)

Structure (SMILES): CCOC(=O)CNC(=O)CSc1nc2c(C)cccc2cc1CC
- IC50 [1]: 2.76 µM (active)
- IC50 [2]: > 138 µM (inactive)

Structure (SMILES): OCCNc1c2ccccc2nc2ccccc12
- AC50 [3]: 11.6 µM (active)
- EC50 [4]: > 350 µM (not active)
- EC50 [5]: 7.92 µM (active)
- AC50 [6]: 14.2 µM (active)
- EC50 [7]: > 167 µM (inactive)
- EC50 [8]: 993 nM (active)
- AC50 [9]: 9.09 µM (active)
- AC50 [10]: 17 µM (active)
- AC50 [11]: 11.7 µM (active)
- AC50 [12]: 7.28 µM (active)
- EC50 [13]: 23 µM (active)
- AC50 [14]: 28.6 µM (active)

Structure (SMILES): CCCCOC(=O)Oc1ccc2c(=O)c(Oc3cccc(C)c3)coc2c1
- IC50 [15]: > 47.1 µM (inactive)
- EC50 [16]: 6.86 µM (active)
- EC50 [17]: > 53 µM (inactive)

Structure (SMILES): CC1=NN(c2ccccc2)C(=O)/C1=C\c1ccc(Br)s1
- IC50 [18]: > 128 µM (inactive)

Structure (SMILES): Clc1ccc(OCCN2CCN(c3ncnc4sccc34)CC2)cc1
- AC50 [19]: > 70 µM (inactive)
- EC50 [20]: 44 nM (active)
- AC50 [21]: 503 nM (active)
- IC50 [22]: 1.13 µM (active)
- AC50 [23]: < 260 nM (active)
- EC50 [24]: > 150 µM (inactive)

Structure (SMILES): O=C(CSCc1ccccc1)Nc1cccc(F)c1
- IC50 [25]: > 122 µM (inactive)
- IC50 [26]: > 122 µM (inactive)

Structure (SMILES): Cc1n[nH]c([S+]([O-])CC(=O)O)c1[N+](=O)[O-] (stereo not drawn)
- AC50 [27]: 56.5 µM (active)
- AC50 [28]: 4.04 µM (active)
